Measured values published in BindingDB's records for doi:10.1016/j.ejmech.2017.08.029 (Emory University, 2017).

Test: Inhibition of human GLUT1 in human KMS11 cells over-expressing human GLUT1 assessed as as inhibition of receptor-mediated cell proliferation after 72 hrs by CellTiter-Glo assay

| SMILES | IC50 |
| --- | --- |
| COc1ccc(C(=O)N(Cc2ccncc2)Cc2cccc(OCc3ccc(F)cc3)c2)cc1 | 28.6 µM |
| COc1ccc(CC(=O)N(Cc2ccncc2)Cc2cccc(OCCc3ccc(F)cc3)c2)cc1 | 21.8 µM |
| COc1ccc(C(=O)N(Cc2ccncc2)Cc2cccc(OCCc3cccc(C(F)(F)F)c3)c2)cc1 | 15.1 µM |
| COc1ccc(C(=O)N(Cc2ccncc2)Cc2cccc(OCCc3ccccc3)c2)cc1 | 21 µM |
| COc1ccc(C(=O)N(Cc2ccncc2)Cc2cccc(OCc3ccc([N+](=O)[O-])cc3)c2)cc1 | 11.7 µM |
| COc1ccc(C(=O)N(Cc2ccncc2)Cc2cccc(OCC(=O)c3ccc(Cl)cc3)c2)cc1 | 16.9 µM |
| COc1ccc(C(=O)N(Cc2ccncc2)Cc2cccc(OCCc3ccc(C)cc3)c2)cc1 | 12.7 µM |

The remaining lines, values ahead:

| IC50 | SMILES |
| --- | --- |
| 28.5 µM | COc1ccc(C(=O)N(Cc2ccncc2)Cc2cccc(OCc3cccc(OC)c3)c2)cc1 |
| 21.4 µM | COc1ccc(C(=O)N(Cc2ccncc2)Cc2cccc(OCC(=O)c3cccc(Br)c3)c2)cc1 |
| 6.5 µM | COc1ccc(C(=O)N(Cc2ccncc2)Cc2cccc(OCCc3ccc(Br)cc3)c2)cc1 |
| 25.8 µM | COc1ccc(C(=O)N(Cc2ccncc2)Cc2cccc(OCC3CCOCC3)c2)cc1 |
| 16 µM | COc1ccc(C(=O)N(Cc2ccncc2)Cc2cccc(OCC3CCCCC3)c2)cc1 |
| 15.6 µM | O=C(c1ccc(Cl)cc1)N(Cc1ccncc1)Cc1cccc(OCCc2ccc(F)cc2)c1 |
| 16.8 µM | COc1ccc(C(=O)N(Cc2ccncc2)Cc2cccc(OCc3ccc(C(F)(F)F)cc3)c2)cc1 |
